Laboratory results as given in publication PMC9866218, “Characterization and Chemical Synthesis of Cm39 (α-KTx 4.8): A Scorpion Toxin That Inhibits Voltage-Gated K^+ Channel KV1.2 and Small- and Intermediate-Conductance Ca^2+-Activated K^+ Channels KCa2.2 and KCa3.1” (Toxins, 2023).
“Also recorded” adds a separate entry of the source.

Legend:
mKCa1.1 = assay type: cell-based, mice; conditions: HEK 293 cells
Description: (§1) We, therefore, aimed at testing the pharmacological activity of sCm39 on a battery of various potassium and sodium ion channels. Among the tested channels were six members of human voltage-gated K^+ (hKV) channels from Shaker family, hKV1.1-hKV1.6 (Figure 3A–F) and three members of Ca^2+-activated potassium channel; hKCa2.2 (SK2, Figure 3I), the small-conductance Ca^2+-activated channel; hKCa3.1 (IKCa1, SK4. Figure 3J), the intermediate-conductance Ca^2+-activated channel expressed in T lymphocytes; and mKCa1.1 (BK, Slo1, MaxiK, Figure 3H), the large-conductance voltage- and Ca^2+-activated channel of mice. In addition, we also screened the effect of Cm39 on hKV11.1 (hERG1, Figure 3G), a voltage-gated cardiac K^+ channel, and two human voltage-gated sodium (hNaV) channels, hNaV1.4 (Figure 3K) and hNaV1.5 (Figure 3L), expressed in skeletal and cardiac muscles, respectively. These ion channels were heterologously expressed in the CHO or HEK cell lines except for KV1.3. Human peripheral T lymphocytes. They were stimulated with Phytohemagglutinin A (PHA) to increase the KV1.3 channel expression, and Ca^2+-free intracellular solution was used to avoid KCa3.1 channel activation. Appropriate depolarization protocols were used to record ionic currents in voltage-clamped cells (see Figure 3 insets and Material and Methods for details). Freshly dissolved sCm39 in extracellular solution was applied at 1 µM concentration on the cell using a custom-built micro-perfusion system at ~200 µL/min flow rate. […]
Whole-cell currents were recorded in voltage-clamped cells following standard protocols by using a Multiclamp 700B amplifier connected to a computer with Axon Digidata1440 digitizer and for data acquisition, Clampex 10.7 software was used (Molecular Devices). […]

hKV1.5 = assay: Whole-cell patch-clamp, block of KV1.5 current; assay type: cell-based, human; conditions: CHO cells
Description: as §1, with “activation.” for “activation. Appropriate depolarization protocols were used to record ionic currents in voltage-clamped cells (see Figure 3 insets and Material and Methods for details). Freshly dissolved sCm39 in extracellular solution was applied at 1 µM concentration on the cell using a custom-built micro-perfusion system at ~200 µL/min flow rate.”
Those plasmids which lack a fluorescent tag were co-transfected with a plasmid encoding GFP. […] Generally, currents were recorded 24 to 48 h post transfection. […]

CC[C@H](C)[C@@H]1NC(=O)[C@H](C)NC(=O)[C@H](C)NC(=O)[C@H](CCCCN)NC(=O)[C@@H]2CSSC[C@@H](C(=O)N[C@@H](Cc3ccc(O)cc3)C(=O)N[C@@H](Cc3ccc(O)cc3)C(=O)O)NC(=O)[C@H](CCCCN)NC(=O)[C@@H]3CSSC[C@H](NC(=O)[C@H](CCC(=O)O)NC(=O)[C@H](CO)NC(=O)[C@H](CO)NC(=O)[C@H](CO)NC(=O)[C@H](CCCCN)NC(=O)[C@@H](NC(=O)[C@H](CCCCN)NC(=O)[C@H](Cc4c[nH]cn4)NC(=O)[C@H](CC(N)=O)NC(=O)[C@@H](NC(=O)[C@H](Cc4ccccc4)NC(=O)[C@@H](N)[C@@H](C)O)[C@@H](C)CC)CSSC[C@H](NC(=O)[C@H](CCCCN)NC(=O)CNC(=O)[C@H](CO)NC(=O)[C@H](C)NC(=O)[C@H](CCCNC(=N)N)NC(=O)CNC1=O)C(=O)N[C@@H]([C@@H](C)CC)C(=O)N[C@@H](CC(N)=O)C(=O)N[C@@H](CO)C(=O)N[C@@H]([C@@H](C)O)C(=O)N3)C(=O)N[C@@H](CC(C)C)C(=O)N1CCC[C@H]1C(=O)N[C@@H](C)C(=O)N2 [Cm39]
inhibition (in words) (mKCa1.1; 1 μM): does not inhibit; also recorded: did not show any effect
decrease in current (mKCa1.1; 1 µM, 3−5 min, n = 3−5): < 3%
inhibition (in words) (hKV1.5; 1 μM): does not inhibit; also recorded: did not show any effect
decrease in current (hKV1.5; 1 µM, 3−5 min, n = 3−5): < 3%
